# Measurements: publication PMC4382154, “Screening of the Pan-African Natural Product Library Identifies Ixoratannin A-2 and Boldine as Novel HIV-1 Inhibitors” (PLoS ONE, 2015)
# Where two headings read alike, the source gives them in different places.
# Experiments:
# [1] = Cell toxicity in HIV-1 infected CEM-GXR cultures (forward/side scatter); type: cell-based; conditions: human, HIV-1NL4-3-infected CEM-GXR cells (CD4+ T-lymphocyte line), Day 4
# Protocol: (§1) CEM-GXR cells are an immortalized CD4+ T-lymphocyte line engineered that naturally express the HIV-1 coreceptor CXCR4 and have been further engineered to express the HIV-1 co-receptor CCR5 and a Tat-driven LTR-GFP expression cassette. As such, intracellular GFP expression indicates HIV-1 infection. Cultures of 10^5 CEM-GXR cells were seeded into 96-well plates with RPMI-1640 media (Sigma) supplemented with penicillin/streptomycin plus 20% fetal calf serum (R20+), infected with HIV-1 at a multiplicity of infection of 0.03 (to achieve 3% infected cells on Day 2), and incubated at 37°C and 5% CO2. 24 hours later, cells were pelleted at 750 g and resuspended in R20+ containing compound or 0.1% DMSO. […] Cells were then incubated at 37°C and 5% CO2 for an additional 72 h. 5,000 cells from each culture were measured for cell toxicity and GFP expression by flow cytometry. Flow cytometry data were analyzed using FlowJo v. 8.8.7 software (FlowJo LLC, Ashland, OR). […] Background GFP expression in uninfected cultures was set at 0.05% GFP-positive cells. For each experiment, all data points were obtained in triplicate. All data are reported as the mean ± s.e.m. from at least 3 independent experiments performed with different virus stocks and/or performed on different days. However, all experiments that compare HIV-1NL4-3 and mutant HIV-1 were performed in parallel. EC50 and CC50 values for each compound were calculated from at least four concentrations. Statistical analyses were performed using Student’s unpaired t test, with a p value < 0.05 plus a Bonferroni correction to adjust for multiple comparisons considered significant.
# (§2) To assess the effects of these eight compounds on cell viability and HIV-1 replication, we infected a GFP-reporter CEM CD4+ T cell line (CEM-GXR) with the NL4-3 strain of HIV-1 (HIV-1NL4-3). Briefly, cells were infected with HIV-1NL4-3 at a multiplicity of infection of 0.03 (Day 0), followed by removal of HIV-1 and addition of compound (or 0.1% DMSO vehicle control) 24 hours later (Day 1) and incubation for an additional 72 hours to allow HIV-1 spread (Days 2–4). On Days 2 and/or 4, the percent HIV-1 infected (i.e., GFP-expressing) cells was measured by flow cytometry. Cell viability was assessed by measuring the percentage of cells displaying normal forward- and side-scatter parameters in drug-treated, HIV-1 infected cultures compared to 0.1% DMSO-treated, HIV-1 infected control cultures. […] HIV-1NL4-3 replication was unaffected by the presence of 0.1% DMSO vehicle control (Fig. 2B).
# HIV-1INT = HIV-1INT replication in CEM-GXR cells; type: cell-based; conditions: for EC50: Human immunodeficiency virus 1, CEM-GXR, 96 h, read-out: EC50 HIV-1INT
# Protocol: (§3) HIV-1Δvpu was constructed by digesting plasmid p210-13 3’ Δ-vpu with EcoRI and NheI enzymes. The resulting DNA fragment was then ligated into wild-type pNL4-3 plasmid digested with the same enzymes. HIV-1Δvpu and HIV-1NL4-3 viral stocks were prepared by transfection of HEK-293T cells, as previously described. Patient plasma-HIV-1 RNA sequences were analyzed for resistance mutations using the HIV Drug Resistance Database Genotype Resistance Interpretation Algorithm (hivdb.stanford.edu). Recombinant HIV-1NL4-3 expressing patient-derived HIV-1 sequences harboring resistance mutations to protease and reverse transcriptase inhibitors (HIV-1PR+RT), reverse transcriptase inhibitors (HIV-1RT), and integrase inhibitors (HIV-1INT) were generated by homologous recombination following co-transfection as reported.
# as §1
# (§4) To investigate the mechanisms by which ixoratannin A-2 and boldine may block HIV-1 replication, we used a previously-reported HIV-1NL4-3 strain lacking the Vpu coding region (HIV-1Δvpu). We also constructed recombinant HIV-1NL4-3 strains harboring protease, reverse transcriptase, and/or integrase sequences of HIV-1 strains from patients who had developed resistance to the protease inhibitor Indinavir (IND), the non-nucleoside reverse transcriptase inhibitor Efavirenz (EFV), and/or the integrase inhibitor Raltegravir (RAL) (denoted HIV-1PR+RT, HIV-1RT, and HIV-1INT, respectively). Re-sequencing of the recombinant viruses confirmed the presence of multiple mutations known to confer resistance to IND, EFV, and/or RAL (Table 2).
# HIV-1PR+RT = HIV-1PR+RT replication in CEM-GXR cells; type: cell-based; conditions: for HIV-1PR+RT replication fold higher than HIV-1NL4-3: 75 μM; for EC50: Human immunodeficiency virus 1, CEM-GXR, 96 h, read-out: EC50 HIV-1PR+RT
# Protocol: as §3, §1, §4
# HIV-1Δvpu = HIV-1Δvpu replication in CEM-GXR cells; type: cell-based; conditions: for fold less effective at inhibiting HIV-1Δvpu compared to HIV-1NL4-3: 75 μM, CEM-GXR cells; for EC50: Human immunodeficiency virus 1, CEM-GXR, 96 h, read-out: EC50 HIV-1Δvpu
# Protocol: as §3, §1, §4
# hERG potassium channel = tested on: hERG potassium channel; design: method as in PMID 24963621; conditions: two electrode voltage clamp, Xenopus oocytes; read-out: IC50 hERG potassium channel currents; cited from earlier work
# HIV-1NL4-3 = experiment: microbe, parasite or virus in culture; type: cell-based; conditions: for percent GFP-positive (HIV-infected) cells: 100 μM; for selectivity index (SI): CC50 over EC50 in CEM-GXR cells; for EC50: read-out: HIV-1NL4-3 inhibition (EC50)
# Protocol: as §1, §2
# [2] = concentrations up to 75 or 100 μM, CEM-GXR cells
SMILES,CC50 at 72 h [1] [µM],EC50 (HIV-1INT) [µM],inhibition of HIV-1INT (HIV-1INT; [2]) [%],"HIV-1PR+RT replication fold greater vs. HIV-1NL4-3 (HIV-1PR+RT; 25 μM, CEM-GXR cells) [fold]",HIV-1PR+RT replication fold higher than HIV-1NL4-3 (HIV-1PR+RT; CEM-GXR cells) [fold],EC50 (HIV-1PR+RT) [µM],HIV-1PR+RT replication fold increased vs. HIV-1NL4-3 (HIV-1PR+RT; concentration not stated) [fold],inhibition of HIV-1PR+RT (HIV-1PR+RT; [2]) [%],fold less effective at inhibiting HIV-1Δvpu compared to HIV-1NL4-3 (HIV-1Δvpu) [fold],EC50 (HIV-1Δvpu) [µM],IC50 (hERG potassium channel) [µM],"percent GFP-positive (HIV-infected) cells (HIV-1NL4-3; Day 2, HIV-1NL4-3-infected CEM-GXR cells (infected control 3.14)) [%]","percent GFP-positive (HIV-infected) cells (HIV-1NL4-3; Day 4, HIV-1NL4-3-infected CEM-GXR cells (infected control 10.80)) [%]",selectivity index (SI) (HIV-1NL4-3),"EC50 (HIV-1NL4-3; Human immunodeficiency virus 1, CEM-GXR, 96 h) [µM]","HIV-1INT replication fold higher than HIV-1NL4-3 (HIV-1INT; 75 μM, CEM-GXR cells) [fold]","EC50 (HIV-1NL4-3; Human immunodeficiency virus 1, 96 h, CEM-GXR cells, Day 4) [µM]"
COc1cc2c(cc1O)C[C@H]1c3c(cc(O)c(OC)c3-2)CCN1C [boldine],> 100,> 100,< 50,1.4,1.5,> 100,1.4,< 50,1.3,> 100,19.3,2.17,4.09,4.1,50.2,–,–
Oc1cc(O)c2c(c1)OC1(c3ccc(O)c(O)c3)Oc3c4c(c5c(c3C2C1O)OC1(c2ccc(O)c(O)c2)Oc2cc(O)cc(O)c2C5C1O)OC(c1ccc(O)c(O)c1)C(O)C4 (stereo not drawn) [ixoratannin A-2],57.5,38.4,–,–,1.5,36.4,–,–,1.4,52,–,–,–,1.7,–,1.5,34.4
